Measurements reported in ChEMBL document CHEMBL1201862, “PubChem BioAssay data set” (2004).
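48-hour exposure; five concentrations; linearly interpolated endpoints. GI50: concentration for 50% inhibition of growth.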 Active and inactive are the calls of the source. Rule as the data show it: active = GI50 up to about 1.1 µM and inactive = higher.

Experiments:
Experiment in all cases: growth of human tumour cells (NCI), 48 h
786-0 = system: 786-0
A498 = system: A498
A549 = system: A549
ACHN = system: ACHN
CAKI-1 = system: CAKI-1
CCRF-CEM = system: CCRF-CEM
COLO 205 = system: COLO 205
DLD-1 = system: DLD-1
DMS-114 = system: DMS-114
DMS-273 = system: DMS-273
EKVX = system: EKVX
HCC 2998 = system: HCC 2998
HCT-116 = system: HCT-116
HOP-18 = system: HOP-18
HOP-62 = system: HOP-62
HOP-92 = system: HOP-92
HT-29 = system: HT-29
IGROV-1 = system: IGROV-1
K562 = system: K562
KM12 = system: KM12
LOX IMVI = system: LOX IMVI
M19-MEL = system: M19-MEL
MOLT-4 = system: MOLT-4
Malme-3M = system: Malme-3M
NCI-H226 = system: NCI-H226
NCI-H23 = system: NCI-H23
NCI-H460 = system: NCI-H460
NCI-H522 = system: NCI-H522
OVCAR-3 = system: OVCAR-3
OVCAR-4 = system: OVCAR-4
OVCAR-5 = system: OVCAR-5
OVCAR-8 = system: OVCAR-8
RPMI-8226 = system: RPMI-8226
RXF 393 = system: RXF 393
SF-268 = system: SF-268
SF-295 = system: SF-295
SF-539 = system: SF-539
SK-MEL-28 = system: SK-MEL-28
SK-MEL-2 = system: SK-MEL-2
SK-MEL-5 = system: SK-MEL-5
SK-OV-3 = system: SK-OV-3
SN12C = system: SN12C
SNB-19 = system: SNB-19
SNB-75 = system: SNB-75
SNB-78 = system: SNB-78
SR = system: SR
SW-620 = system: SW-620
TK-10 = system: TK-10
U-251 = system: U-251
UACC-257 = system: UACC-257
UACC-62 = system: UACC-62
UO-31 = system: UO-31
XF498 = system: XF498
HL-60 = system: HL-60
KM-20L2 = system: KM-20L2
LXFL 529 = system: LXFL 529
M14 = system: M14
HCT-15 = system: HCT-15

C#CCOCn1cnc2ncnc(N)c21 was tested, and the GI50 (786-0) was > 100 µM (inactive), the GI50 (A498) was > 100 µM (inactive) and the GI50 (A549) was > 100 µM (inactive). The GI50 (ACHN) was > 100 µM (inactive), the GI50 (CAKI-1) was > 100 µM (inactive) and the GI50 (CCRF-CEM) was > 100 µM (inactive). The GI50 (COLO 205) was > 100 µM (inactive), the GI50 (DLD-1) was > 100 µM (inactive) and the GI50 (DMS-114) was > 100 µM (inactive). For the same molecule, the GI50 (DMS-273) was > 100 µM (inactive), the GI50 (EKVX) was > 100 µM (inactive) and the GI50 (HCC 2998) was > 100 µM (inactive). For the same molecule, the GI50 (HCT-116) was > 100 µM (inactive), the GI50 (HOP-18) was > 100 µM (inactive) and the GI50 (HOP-62) was > 100 µM (inactive). The GI50 (HOP-92) was > 100 µM (inactive), the GI50 (HT-29) was > 100 µM (inactive) and the GI50 (IGROV-1) was > 100 µM (inactive). For the same molecule, the GI50 (K562) was > 100 µM (inactive), the GI50 (KM12) was > 100 µM (inactive) and the GI50 (LOX IMVI) was > 100 µM (inactive). For the same molecule, the GI50 (M19-MEL) was > 100 µM (inactive), the GI50 (MOLT-4) was > 100 µM (inactive) and the GI50 (Malme-3M) was > 100 µM (inactive). The GI50 (NCI-H226) was > 100 µM (inactive), the GI50 (NCI-H23) was > 100 µM (inactive) and the GI50 (NCI-H460) was > 100 µM (inactive). The GI50 (NCI-H522) was > 100 µM (inactive), the GI50 (OVCAR-3) was > 100 µM (inactive) and the GI50 (OVCAR-4) was > 100 µM (inactive). The GI50 (OVCAR-5) was > 100 µM (inactive), the GI50 (OVCAR-8) was > 100 µM (inactive) and the GI50 (RPMI-8226) was > 100 µM (inactive). The GI50 (RXF 393) was > 100 µM (inactive), the GI50 (SF-268) was > 100 µM (inactive) and the GI50 (SF-295) was > 100 µM (inactive). For the same molecule, the GI50 (SF-539) was > 100 µM (inactive), the GI50 (SK-MEL-28) was > 100 µM (inactive) and the GI50 (SK-MEL-2) was > 100 µM (inactive). The GI50 (SK-MEL-5) was > 100 µM (inactive), the GI50 (SK-OV-3) was > 100 µM (inactive) and the GI50 (SN12C) was > 100 µM (inactive). The GI50 (SNB-19) was > 100 µM (inactive), the GI50 (SNB-75) was > 100 µM (inactive) and the GI50 (SNB-78) was > 100 µM (inactive). The GI50 (SR) was > 100 µM (inactive), the GI50 (SW-620) was > 100 µM (inactive) and the GI50 (TK-10) was > 100 µM (inactive). For the same molecule, the GI50 (U-251) was > 100 µM (inactive), the GI50 (UACC-257) was > 100 µM (inactive) and the GI50 (UACC-62) was > 100 µM (inactive). For the same molecule, the GI50 (UO-31) was > 100 µM (inactive) and the GI50 (XF498) was > 100 µM (inactive).

N#CC(/C(=N/NC(=O)C(=O)NN)C(=O)Nc1nc([N+](=O)[O-])cs1)c1ccc(Cl)cc1 (stereo unspecified) was tested, and the GI50 (786-0) was > 100 µM (inactive), the GI50 (A549) was > 100 µM (inactive) and the GI50 (ACHN) was > 100 µM (inactive). The GI50 (CCRF-CEM) was 89.5 µM (inactive), the GI50 (COLO 205) was > 100 µM (inactive) and the GI50 (DLD-1) was > 100 µM (inactive). For the same molecule, the GI50 (DMS-114) was > 100 µM (inactive), the GI50 (EKVX) was > 100 µM (inactive) and the GI50 (HCC 2998) was > 100 µM (inactive). The GI50 (HCT-116) was > 100 µM (inactive), the GI50 (HL-60) was > 100 µM (inactive) and the GI50 (HOP-62) was > 100 µM (inactive). For the same molecule, the GI50 (HOP-92) was > 100 µM (inactive), the GI50 (HT-29) was > 100 µM (inactive) and the GI50 (IGROV-1) was > 100 µM (inactive). The GI50 (KM-20L2) was > 100 µM (inactive), the GI50 (KM12) was > 100 µM (inactive) and the GI50 (LOX IMVI) was > 100 µM (inactive). The GI50 (LXFL 529) was > 100 µM (inactive), the GI50 (M14) was > 100 µM (inactive) and the GI50 (M19-MEL) was > 100 µM (inactive). For the same molecule, the GI50 (MOLT-4) was > 100 µM (inactive), the GI50 (Malme-3M) was > 100 µM (inactive) and the GI50 (NCI-H226) was > 100 µM (inactive). For the same molecule, the GI50 (NCI-H23) was > 100 µM (inactive), the GI50 (NCI-H460) was > 100 µM (inactive) and the GI50 (OVCAR-3) was > 100 µM (inactive). For the same molecule, the GI50 (OVCAR-4) was > 100 µM (inactive), the GI50 (OVCAR-5) was > 100 µM (inactive) and the GI50 (OVCAR-8) was > 100 µM (inactive). For the same molecule, the GI50 (RPMI-8226) was > 100 µM (inactive), the GI50 (RXF 393) was > 100 µM (inactive) and the GI50 (SF-268) was > 100 µM (inactive). The GI50 (SF-295) was > 100 µM (inactive), the GI50 (SK-MEL-28) was > 100 µM (inactive) and the GI50 (SK-MEL-2) was > 100 µM (inactive). For the same molecule, the GI50 (SK-MEL-5) was > 100 µM (inactive), the GI50 (SN12C) was > 100 µM (inactive) and the GI50 (SNB-19) was > 100 µM (inactive). For the same molecule, the GI50 (SNB-75) was > 100 µM (inactive), the GI50 (SNB-78) was > 100 µM (inactive) and the GI50 (SW-620) was > 100 µM (inactive). For the same molecule, the GI50 (TK-10) was > 100 µM (inactive), the GI50 (U-251) was > 100 µM (inactive) and the GI50 (UACC-257) was > 100 µM (inactive). For the same molecule, the GI50 (UACC-62) was 56.5 µM (inactive), the GI50 (UO-31) was > 100 µM (inactive) and the GI50 (XF498) was > 100 µM (inactive).

For COC(=O)N/N=C(\C)C(CN(C)C)C(c1ccccc1)c1c(O)c2ccccc2oc1=O (stereo unspecified), the GI50 (786-0) was > 100 µM (inactive), the GI50 (A498) was > 100 µM (inactive) and the GI50 (A549) was > 100 µM (inactive). The GI50 (ACHN) was > 100 µM (inactive), the GI50 (CAKI-1) was > 100 µM (inactive) and the GI50 (CCRF-CEM) was > 100 µM (inactive). For the same molecule, the GI50 (COLO 205) was > 100 µM (inactive), the GI50 (DLD-1) was > 100 µM (inactive) and the GI50 (DMS-114) was > 100 µM (inactive). The GI50 (DMS-273) was > 100 µM (inactive), the GI50 (EKVX) was > 100 µM (inactive) and the GI50 (HCC 2998) was > 100 µM (inactive). The GI50 (HCT-116) was > 100 µM (inactive), the GI50 (HCT-15) was greater than 100 µM and the GI50 (HL-60) was > 100 µM (inactive). The GI50 (HOP-62) was > 100 µM (inactive), the GI50 (HOP-92) was 27.2 µM (inactive) and the GI50 (HT-29) was > 100 µM (inactive). For the same molecule, the GI50 (IGROV-1) was > 100 µM (inactive), the GI50 (K562) was > 100 µM (inactive) and the GI50 (KM-20L2) was > 100 µM (inactive). For the same molecule, the GI50 (KM12) was > 100 µM (inactive), the GI50 (LOX IMVI) was > 100 µM (inactive) and the GI50 (LXFL 529) was > 100 µM (inactive). The GI50 (M14) was > 100 µM (inactive), the GI50 (M19-MEL) was > 100 µM (inactive) and the GI50 (MOLT-4) was > 100 µM (inactive). For the same molecule, the GI50 (Malme-3M) was > 100 µM (inactive), the GI50 (NCI-H226) was > 100 µM (inactive) and the GI50 (NCI-H23) was > 100 µM (inactive). For the same molecule, the GI50 (NCI-H522) was 14.2 µM (inactive), the GI50 (OVCAR-4) was > 100 µM (inactive) and the GI50 (OVCAR-5) was > 100 µM (inactive). The GI50 (OVCAR-8) was > 100 µM (inactive), the GI50 (RPMI-8226) was > 100 µM (inactive) and the GI50 (RXF 393) was > 100 µM (inactive). For the same molecule, the GI50 (SF-268) was > 100 µM (inactive), the GI50 (SF-295) was > 100 µM (inactive) and the GI50 (SF-539) was > 100 µM (inactive). The GI50 (SK-MEL-28) was > 100 µM (inactive), the GI50 (SK-MEL-2) was > 100 µM (inactive) and the GI50 (SK-MEL-5) was > 100 µM (inactive). The GI50 (SK-OV-3) was > 100 µM (inactive), the GI50 (SN12C) was > 100 µM (inactive) and the GI50 (SNB-19) was > 100 µM (inactive). For the same molecule, the GI50 (SNB-75) was > 100 µM (inactive), the GI50 (SNB-78) was > 100 µM (inactive) and the GI50 (SR) was > 100 µM (inactive). The GI50 (SW-620) was > 100 µM (inactive), the GI50 (TK-10) was > 100 µM (inactive) and the GI50 (U-251) was > 100 µM (inactive). The GI50 (UACC-257) was > 100 µM (inactive), the GI50 (UACC-62) was > 100 µM (inactive) and the GI50 (UO-31) was > 100 µM (inactive). For the same molecule, the GI50 (XF498) was > 100 µM (inactive).
